# Test results reported in patent US8623919B2, “Method of synthesizing S-allyl-cysteine analogues and their therapeutic application in treating myocardial infarction” (Fudan University, priority 2007, dated 2014).
# Columns and labels:
# myocardial cells [1] = assay: SOD activity (Hydroxylamine method) in hypoxia/reoxygenation injured myocardial cells; assay type: cell-based, Sprague-Dawley (SD) rat
# Description: Myocardial cell samples were obtained from the same procedure of Example 1, the experiment groups were divided and hypoxia/reoxygenation experiments were performed on Control group, Vehicle group, SAC and analogue groups, same as the experiments in Example 1 with the same dosages and same conditions. Myocardial cells were obtained from each sample (10^6 myocardial cells/sample) from the Control group, Vehicle group, SAC and analogue groups. The cells were lysed under sterilized condition, and SOD (superoxide dismutase) activities in each sample of the cells were determined by Hydroxylamine method (a conventional method well known in the arts) using each microgram of protein per 1 milliliter reaction solution inhibits SOD activity to its 50% of original activity, in which the amount of SOD used in the reaction as standard of 1 unit of SOD activity.
# myocardial cells [2] = assay: Lipid peroxidation (MDA, TBA) in hypoxia/reoxygenation injured myocardial cells; assay type: cell-based, Sprague-Dawley (SD) rat; conditions: 10^−5 mol/L
# Description: Myocardial cell samples were obtained from the same procedure of Example 1, the experiment groups were divided and hypoxia/reoxygenation experiments were performed on Control group, Vehicle group, SAC and analogue groups, same as the experiments in Example 1 with the same dosages and same conditions. Myocardial cells were obtained from each sample (10^6 myocardial cells/sample) from the Control group, Vehicle group, SAC and analogue groups. The cells were lysed under sterilized condition, and lipid peroxidation experiments on the samples were performed. Since oxygen free radical attacks poly unsaturated fatty acid in biomembrane, inducing lipid peroxidation and producing MDA (malondialdehyde). MDA can react with thiobarbituric acid (TBA), forms red product, which can be detected in spectrophotometer at 532 nm. […] The inhibition effect could be reversed by PAG.
# H9c2 cells [3] = assay: H9c2 cell viability by MTT method after H2O2 injury; assay type: cell-based; conditions: PAG group, PAG 10^−4 mol/L
# Description: (§1) H9c2 cells were cultured in DMEM with 10% of fetal bovine serum, 37 degree C. and 5% CO2 incubator. The monolayer culture was split at a 1:4 ratio or harvested to perform experiments when confluence was 70-80%. Adjust the density of the cells to […] and inoculate the cells on a 96 well plate.
# Control group, no SAC analogues treatment, no H2O2 injured process.
# (§2) H2O2 injury (Model) group, no SAC analogues treatment, under H2O2 200 μmol/L for 2 hours.
# (§3) PAG group, PAG 10^−4/mol/L
# (§4) SPRC dosage groups: SPRC 1E-7, SPRC 1E-6, SPRC 1E-5, the cell groups were treated with SPRC dosages of 10^−7 mol/L, 10^−6 mol/L, 10^−5 mol/L respectively.
# (§5) SPRC dosage+PAG groups: the cell group was treated with SPRC dosages of 10^−5 mol/L and PAG 10^−4 mol/L.
# H9c2 cell viability was assessed by MTT method. […] PAG is able to block the effect of SPRC.
# H9c2 cells [4] = assay: LDH leakage of H9c2 cells injured by H2O2; assay type: cell-based; conditions: PAG group, PAG 10^−4 mol/L
# Description: as §1, §2, §3, §4, §5
# The cell samples (10^6 cells/sample) from each group were lysed under sterilized condition, and LDH contents in each samples were tested by pyruvic acid production method.
# H9c2 cells [5] = assay: Mn-SOD activity of H9c2 cells injured by H2O2; assay type: cell-based; conditions: PAG group, PAG 10^−4 mol/L
# Description: (§6) H9c2 cells were cultured same as Example 12, the cells were then divided into the groups same as Example 12.
# (§7) The cells were lysed under sterilized condition, and lipid peroxidation experiments on the samples were performed. […] The effect of SPRC could be blocked by PAG, indicating SPRC mediates its effect on H9c2 cell by way of endogenous H2S.
# H9c2 cells [6] = assay: MDA content of H9c2 cells injured by H2O2; assay type: cell-based; conditions: PAG group, PAG 10^−4 mol/L
# Description: as §6, §7
# rats following MI injury [7] = assay: Infarct size after TTC staining in rats following MI injury; assay type: in vivo, SD rats; conditions: 50 mg/Kg/day intraperitoneal, 7 days before and 2 days after ligation, 48 h after surgery, saline 36.0±1.3%
# Description: (§8) SPRC and SAC were dissolved in saline (vehicle). Male SD rats (weight 200-250 g) were randomly assigned to […] treatment groups: group (1) Sham group: Sham-treated with saline (n=4), (2) Sham+SPRC group: Sham-treated with SPRC (50 mg/Kg/day) (n=4), (3) Sham+SAC group: Sham-treated with SAC (50 mg/Kg/day) (n=4), (4) MI group: MI treated with saline (n=8), (5) MI+SPRC group: MI treated with SPRC (50 mg/Kg/day) (n=8), (6) MI+SAC group: MI treated with SAC (50 mg/Kg/day) (n=8). Rats were pre-treated for seven days with each SAC analogues respectively via an intraperitoneal injection once daily before they were used for MI model studies. […] Briefly, the rats were anesthetized with 7% choral hydrate (60 mg/kg intraperitoneal injection), endotracheally intubated and mechanically ventilated with room air, respiratory rate 100 breaths/min, tidal volume 2.5 ml with a rodent ventilator (DHX-150, China). ECG was recorded in the anaesthetized animal for a period of one minute using the Animal Mflab200 amplifier (Produced in China). A left thoracotomy was performed and the third intercostal space was exposed. […] Then incisions were sutured and the chests were closed. […] Forty eight hours after the surgery, ECG was recorded for each rat in each group. […] To evaluate the effect of SPRC and SAC on MI, infarct size were measured after TTC staining (FIG. 12).
# rats following MI injury [8] = assay: ECG in rats following MI injury; assay type: in vivo, SD rats; conditions: 50 mg/Kg/day, day 10, 48 hr after the induction of MI
# Description: as §8
# rats following MI injury [9] = assay: Serum LDH in rats (sham or MI); assay type: in vivo, SD rats; conditions: Sham rats; 50 mg/Kg/day intraperitoneal
# Description: (§9) Animals were assigned and prepared the same as in Example 7, and dosages of SPRC and SAC were used the same in this example as in Example 7.
# (§10) Serum CK levels were detected with diagnostic kit (NJBI, China) according to the instructions. LDH were determined calorimetrically with a spectrophotometer. Lipid peroxidation was measured in terms of MDA content using the thiobarbituric acid (TBA) assay. […] With regard to lipid peroxidation, the levels of MDA in MI groups increased at 48 h after myocardial infarction. […] (FIG. 14)
# rats following MI injury [10] = assay: Serum CK in rats (sham or MI); assay type: in vivo, SD rats; conditions: Sham rats; 50 mg/Kg/day intraperitoneal
# Description: as §9, §10
# rats following MI injury [11] = assay: MDA content (TBA assay) in rats (sham or MI); assay type: in vivo, SD rats; conditions: Sham rats; 50 mg/Kg/day intraperitoneal
# Description: as §9, §10
# rats following MI injury [12] = assay: SOD activity in plasma of rats (sham or MI); assay type: in vivo, SD rats; conditions: 50 mg/Kg/day intraperitoneal
# Description: as §9, §10
# rats following MI injury [13] = assay: Plasma H2S levels in rats (sham or MI); assay type: in vivo, SD rats; conditions: 50 mg/Kg/day intraperitoneal
# Description: as §9
# (§11) The plasma levels of H2S in each treatment group were determined since CSE mediates the endogenous production of H2S in mammals. Plasma H2S concentrations in MI group rats at 48 h after MI induction were 34.7±5.6 μM (n=8). […] Left ventricular CSE activity was analyzed in the tissue homogenates from each treatment group (n=6). CSE activity was 1.58±0.15 μmol/g protein/hr in left the ventricular tissues in MI group and 2.19±0.32 μmol/g protein/hr in the MI+SAC treated rats.
# CSE [14] = molecular target: T1, CSE (Rattus norvegicus, UniProt P18757); assay: Left ventricular CSE activity in tissue homogenates of rats; assay type: in vivo, SD rats; conditions: 50 mg/Kg/day; for CSE activity: left ventricle
# T1 construct: from tissue; host or cells: rat left ventricle (homogenate), myocardial infarction model
# T1 sequence (P18757 whole entry): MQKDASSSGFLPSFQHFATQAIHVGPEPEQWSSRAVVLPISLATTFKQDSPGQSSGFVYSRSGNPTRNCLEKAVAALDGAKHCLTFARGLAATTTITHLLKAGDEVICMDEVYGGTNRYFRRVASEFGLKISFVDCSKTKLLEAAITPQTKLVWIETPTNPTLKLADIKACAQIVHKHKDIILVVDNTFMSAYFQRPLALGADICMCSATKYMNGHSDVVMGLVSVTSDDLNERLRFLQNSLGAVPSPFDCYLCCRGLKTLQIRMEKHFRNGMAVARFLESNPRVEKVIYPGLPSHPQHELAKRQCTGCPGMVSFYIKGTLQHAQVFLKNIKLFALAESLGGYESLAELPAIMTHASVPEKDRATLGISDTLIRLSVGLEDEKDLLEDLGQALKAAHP
# Description: as §9, §11
# SPRC administered rats had the highest CSE activity of 2.58±0.07 μmol/g protein/hr (p<0.01) (FIG. 15B). This observation correlated with the observed increases in H2S concentrations in the same treatment groups.
# Bax = assay: Western blot of Bax protein in left ventricle; assay type: in vivo, SD rats; conditions: MI rats, 50 mg/Kg/day, p<0.01
# Source text: as §9
# Bcl-2 = assay: Western blot of Bcl-2 protein in left ventricle; assay type: in vivo, SD rats; conditions: MI rats, 50 mg/Kg/day, p<0.01
# Source text: as §9
# CSE [15] = assay: Western blot of CSE protein in left ventricle; assay type: in vivo, SD rats; conditions: MI rats, 50 mg/Kg/day, p<0.01
# Source text: as §9
# CSE mRNA = assay: RT-PCR of CSE mRNA in left ventricle; assay type: in vivo, SD rats; conditions: MI rats, 50 mg/Kg/day
# Source text: as §9
# (§12) To further verify the effects of SPRC and SAC, the expressions of Bcl-2, Bax and CSE mRNA were accessed by RT-PCR (FIG. 17). An isoform of the CSE gene was detected (GenBank; access no. AY641456). The relative amounts of CSE mRNA in Left ventricular subjected to MI were increase 3.3-fold and 1.5-fold following SPRC and SAC exposure as compared to the MI group.
# Bax mRNA = assay: RT-PCR of Bax mRNA in left ventricle; assay type: in vivo, SD rats; conditions: MI rats, 50 mg/Kg/day, p<0.05
# Source text: as §9, §12
# Bcl-2 mRNA = assay: RT-PCR of Bcl-2 mRNA in left ventricle; assay type: in vivo, SD rats; conditions: MI rats, 50 mg/Kg/day, p>0.05
# Source text: as §9, §12
smiles,measurement,setting,value
"CCCCCSC[C@H](N)C(=O)O [SPEC, S-pentyl-L-cysteine]",Cu—Zn SOD activity in cytoplasm,myocardial cells [1]; 10^−5 mol/L,able to elevate
same,effect of PAG on elevating Cu—Zn SOD activity,myocardial cells [1]; with PAG,PAG also reversed the effect
"CCSC[C@H](N)C(=O)O [SEC, S-ethyl-L-cysteine]",Mn-SOD activity in mitochondria,myocardial cells [1]; 10^−5 mol/L,able to elevate
same,effect of PAG on elevating Mn-SOD activity,myocardial cells [1]; with PAG,PAG also reversed
same,lipid peroxidation (MDA),myocardial cells [2],inhibited
"CCCSC[C@H](N)C(=O)O [SPC, S-propyl-L-cysteine]",Cu—Zn SOD activity in cytoplasm,myocardial cells [1]; 10^−5 mol/L,able to elevate
same,effect of PAG on elevating Cu—Zn SOD activity,myocardial cells [1]; with PAG,PAG also reversed the effect
same,lipid peroxidation (MDA),myocardial cells [2],inhibited
"CCCCSC[C@H](N)C(=O)O [SBC, S-butyl-L-cysteine]",Cu—Zn SOD activity in cytoplasm,myocardial cells [1]; 10^−5 mol/L,able to elevate
same,effect of PAG on elevating Cu—Zn SOD activity,myocardial cells [1]; with PAG,PAG also reversed the effect
"C#CCC(N)C(=O)O (racemic) [PAG, DL-propargylglycine, reference compound]",H9c2 Cell Survive,H9c2 cells [3],58.9 ± 1.2%
same,LDH Leakage,H9c2 cells [4],63.4 ± 1.2%
same,Mn-SOD Activity,H9c2 cells [5],7.57 ± 0.83 U/mgprot
same,MDA Content,H9c2 cells [6],2.71 ± 0.26 nmol/mgprot
"C=CCSC[C@H](N)C(=O)O [SAC, S-Allyl-Cysteine]",infarct size/total area of myocardium,rats following MI injury [7],24.9±1.9%
same,ST-segment elevation in ECG,rats following MI injury [8],less elevated ST-segment
same,LDH,rats following MI injury [9],2599 ± 212 U/L
same,CK,rats following MI injury [10],0.250 ± 0.019 U/ml
same,MDA,rats following MI injury [11],3.57 ± 0.31 nmol/mL
same,SOD,"rats following MI injury [12]; MI rats, 48 h after MI",107.1 ± 5.4 U/ml
same,SOD,rats following MI injury [12]; Sham rats,159.8 ± 4.8 U/ml
same,H2S concentration in plasma,"rats following MI injury [13]; MI rats, 48 h after MI induction, 50 mg/kg/day",61.1 ± 3.6 µM
same,H2S concentration in plasma,rats following MI injury [13]; Sham rats,65.2 ± 4.4 µM
same,CSE activity,CSE [14]; MI rats,2.19 ± 0.32 μM/mgprot
same,Left ventricular CSE activity,"CSE [14]; MI rats, left ventricular tissue homogenates, MI group 1.58±0.15",2.19±0.32 μmol/g protein/hr
same,CSE activity,CSE [14]; Sham rats,2.31 ± 0.24 μM/mgprot
same,Bax protein levels,Bax,down-regulated
same,Bcl-2 protein expression,Bcl-2,up-regulated
same,CSE protein expression,CSE [15],up-regulated
same,"relative amounts of CSE mRNA, increase as compared to the MI group",CSE mRNA,1.5 fold
same,Bax gene expression,Bax mRNA,down regulated
same,Bcl-2 gene expression,Bcl-2 mRNA,no significant differences
